Experiment [1] relates to PDGF receptor. Kind of experiment: PDGF receptor autophosphorylation in rat aorta smooth muscle cells. Type of experiment: cell-based. Conditions: read-out: Inhibition of PDGF-Stimulated Receptor Auto Phosphorylation in Rat Aortic Smooth Muscle Cells (IC50); PDGF-BB 30 ng/mL for 5 minutes after 2 hours with compound. As for the experimental part:
Rat aorta smooth muscle cells (RASMC) were isolated from the thoracic aorta of rats and explanted according to the method of Ross, J. Cell. Biol., 30:172-186 (1971). Cells were grown in Dulbecco's modified Eagle's medium (DMEM, Gibco) containing 10% fetal calf serum (FBS, Hyclone, Logan, Utah), 1% glutamine (Gibco) and 1% penicillin/streptomycin (Gibco). Cells were identified as smooth muscle cells by their "hill and valley" growth pattern and by fluorescent staining with a monoclonal antibody specific for SMC ∝-actin (Sigma). RASMC were used between passages 5 and 20 for all experiments. Test compounds were prepared in dimethylsulfoxide (DMSO) in order to achieve consistency in the vehicle and to ensure compound solubility. Appropriate DMSO controls were simultaneously evaluated with the test compounds.
RASMC were grown to confluency in 100 mm dishes. Growth medium was removed and replaced with serum-free medium and cells were incubated at 37°C for an additional 24 hours. Test compounds were then added directly to the medium and cells incubated for an additional 2 hours. After 2 hours, PDGF-BB was added at a final concentration of 30 ng/mL for 5 minutes at 37°C to stimulated autophosphorylation of the PDGF receptor. Following growth factor treatment, the medium was removed, and cells were washed with cold phosphate-buffered saline and immediately lysed with 1 mL of lysis buffer (50 mM HEPES[pH 7.5], 150 mM NaCl, 10% glycerol, 1% Triton X-100, 1 mM EDTA, 1 mMEGTA, 50 mM NaF, 1 mM sodium orthovanadate, 30 mM p-nitrophenyl phosphate, 10 mM sodium pyrophosphate, 1 mM phenylmethyl sulfonyl fluoride, 10 µg/mL aprotinin, and 10 µg/mL leupeptin). Lysates were centrifuged at 10,000 × g for 10 minutes. […] Following the incubation, protein-A-sepharose beads were added for 2 hours with continuous mixing, and immune complexes bound to the beads washed four times with 1 mL lysis wash buffer. Immune complexes were solubilized in 30 µL of Laemmli sample buffer and electrophoresed in 4-20% SDS polyacrylamide gels. Following electrophoresis, separated proteins were transferred to nitrocellulose and immunoblotted with anti-phosphotyrosine antiserum. […] IC50 values were generated from the densitometric data.

The target in experiment [2] is T1, Human EGF receptor tyrosine kinase (Homo sapiens, UniProt P00533).
T1 construct: Human EGF receptor tyrosine kinase was isolated from A431 epidermoid carcinoma cells; endogenous in cells; host or cells: A431 epidermoid carcinoma cells
The experiment in a line: EGF receptor tyrosine kinase enzyme assay (substrate peptide phosphorylation). Type of experiment: biochemical. Particulars: read-out: EGF-FL IC50.

Experiment [3] deals with transplanted tumors. Kind of experiment: Transplanted tumor assay. Type of experiment: in vivo. Particulars: F1 hybrid mice; compound generally by infusion by tail tether. As for the experimental part:
F1 hybrid mice were used in the assay. The mice receive ascites fluid or dilutions of tumor brei on Day 0. A sample of the inocula is incubated in thioglycolate media as a check for gross contamination of the tumor material. After all test animals are inoculated with tumors, they are randomized for the assay. Control animals receive vehicle, while treated animals receive an invention compound dissolved in the vehicle, generally by infusion by tail tether. All animals are monitored daily for acute toxicity and other clinical signs. Survival is checked daily for the control group and treated group. The assay generally is continued for 60 days, at which time all surviving animals are euthanized.

For experiment [4], the system named is HT-29. Kind of experiment: Soft agar colony formation, human colon adenocarcinoma cells. Particulars: HT-29, 336 h, read-out: Inhibition of Human Colon Adenocarcinoma IC50, HT-29. Type of experiment: cell-based. As for the experimental part: (§1) Three such human cell lines were identified as HCT-8, SW-620, and HT-29. In a typical assay, the cells are suspended in 0.3% soft agar containing an invention compound at various concentration levels, and are plated into six-well plates, each plate containing a 1% agar plug. The cell plates are incubated at 37°C in a humidified carbon dioxide (5%) incubator, generally for 2 weeks. At the end of the incubation period, colonies of cells are detected by staining the wells with 1 mg/mL of p-iodonitrotetrazolium violet. The cells are counted on an optical colony counter. […] TABLE III. Inhibition of Human Colon Adenocarcinoma IC50 (µM)

Experiment [5] deals with HCT-8. The description is as above. Format: cell-based. Conditions: HCT-8, 336 h, read-out: Inhibition of Human Colon Adenocarcinoma IC50, HCT-8. As for the experimental part: as §1
The subject of experiment [6] is SW-620. The description is as above. Format: cell-based. Conditions: SW-620, 336 h, read-out: Inhibition of Human Colon Adenocarcinoma IC50, SW-620. As for the experimental part:
as §1

The structures appear in SMILES notation.

A word on the IC50: it is the midpoint of a concentration-inhibition curve.

T1 sequence (P00533 25-1210): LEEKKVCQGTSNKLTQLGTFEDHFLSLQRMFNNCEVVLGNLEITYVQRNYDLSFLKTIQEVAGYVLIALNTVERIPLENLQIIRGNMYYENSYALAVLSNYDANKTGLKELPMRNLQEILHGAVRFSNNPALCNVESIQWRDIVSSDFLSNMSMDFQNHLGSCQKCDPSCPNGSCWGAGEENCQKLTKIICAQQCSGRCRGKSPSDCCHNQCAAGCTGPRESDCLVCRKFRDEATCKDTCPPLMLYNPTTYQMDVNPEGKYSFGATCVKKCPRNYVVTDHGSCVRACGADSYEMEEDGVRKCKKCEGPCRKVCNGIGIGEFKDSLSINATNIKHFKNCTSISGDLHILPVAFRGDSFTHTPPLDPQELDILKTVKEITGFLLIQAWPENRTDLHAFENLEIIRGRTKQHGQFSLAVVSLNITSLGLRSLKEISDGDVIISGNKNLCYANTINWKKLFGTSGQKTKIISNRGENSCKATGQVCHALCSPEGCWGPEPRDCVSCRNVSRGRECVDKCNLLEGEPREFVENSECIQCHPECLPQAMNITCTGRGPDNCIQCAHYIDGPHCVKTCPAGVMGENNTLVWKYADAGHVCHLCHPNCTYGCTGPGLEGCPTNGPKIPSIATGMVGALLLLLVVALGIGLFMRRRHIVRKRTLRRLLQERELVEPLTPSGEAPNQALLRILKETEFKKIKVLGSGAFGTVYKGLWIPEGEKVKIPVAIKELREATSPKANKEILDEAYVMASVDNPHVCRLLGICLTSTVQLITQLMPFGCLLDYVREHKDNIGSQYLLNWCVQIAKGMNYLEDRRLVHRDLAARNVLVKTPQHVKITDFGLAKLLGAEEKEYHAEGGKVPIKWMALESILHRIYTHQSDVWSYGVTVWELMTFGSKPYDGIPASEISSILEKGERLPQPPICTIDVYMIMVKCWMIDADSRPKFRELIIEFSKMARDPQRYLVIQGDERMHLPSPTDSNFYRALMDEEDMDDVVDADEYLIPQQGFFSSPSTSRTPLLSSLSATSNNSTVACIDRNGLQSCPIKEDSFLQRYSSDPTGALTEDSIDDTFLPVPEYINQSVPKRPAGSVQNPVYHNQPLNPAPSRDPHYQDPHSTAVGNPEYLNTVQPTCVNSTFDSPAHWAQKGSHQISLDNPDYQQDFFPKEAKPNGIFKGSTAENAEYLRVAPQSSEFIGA

`Cn1c(=O)c(-c2c(Cl)cccc2Cl)cc2cnc(Nc3ccccc3)nc21` [Example 54, 6-(2,6-Dichlorophenyl)-8-methyl-2-phenylamino-8H-pyrido[2,3-d]pyrimidin-7-one]: the IC50 worked out at 16 nM in experiment [1]; 78 nM in experiment [2]; 490 nM in experiment [4]; 520 nM in experiment [5]; 140 nM in experiment [6]. Further, in experiment [3], the “life span of animals infected with transplanted tumors” value is “increased the life span”.

These data come from patent EP0823908B1, “PYRIDO[2,3-d]PYRIMIDINES FOR INHIBITING PROTEIN TYROSINE KINASE MEDIATED [sequence] PROLIFERATION” (Warner-Lambert Company LLC, priority 1995, dated 1996).
